Values joined by “and” are separate entries in the source; they are usually repeats but may differ in a detail not shown here. Equal values may be shown once. Toxic doses and inconclusive results are not listed. Rule as the data show it: active = T/C of 150% or more; inactive = T/C below 125%.
System: L1210 leukemia ip in BDF1 mice, survival T/C
Experiment: NCI In Vivo Anticancer Drug Screen. Data for tumor model L1210 Leukemia (intraperitoneal) in B6D2F1 (BDF1) mice
Details: endpoint: mean survival time, higher = longer survival
Outline: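 Survival endpoint. Drug-treated group vs vehicle group, expressed as T divided by C. Tumor passaged by transplantation.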

[1] = dose: 100.0 mg/kg/injection, schedule: Q01DX009 (ip), vehicle: Klucel (hydroxypropylcellulose) (HPC)
[2] = dose: 200.0 mg/kg/injection, schedule: Q01DX009 (ip), vehicle: Klucel (hydroxypropylcellulose) (HPC)
[3] = dose: 400.0 mg/kg/injection, schedule: Q01DX009 (ip), vehicle: Klucel (hydroxypropylcellulose) (HPC)
[4] = dose: 100.0 mg/kg/injection, schedule: Q04DX003 (ip), vehicle: saline
[5] = dose: 25.0 mg/kg/injection, schedule: Q04DX002 (ip), vehicle: Klucel (hydroxypropylcellulose) (HPC)
[6] = dose: 50.0 mg/kg/injection, schedule: Q04DX002 (ip), vehicle: Klucel (hydroxypropylcellulose) (HPC)
[7] = dose: 100.0 mg/kg/injection, schedule: Q04DX002 (ip), vehicle: Klucel (hydroxypropylcellulose) (HPC)
[8] = dose: 25.0 mg/kg/injection, schedule: Q04DX002 (ip), vehicle: saline with Tween-80
[9] = dose: 50.0 mg/kg/injection, schedule: Q04DX002 (ip), vehicle: saline with Tween-80
[10] = dose: 50.0 mg/kg/injection, schedule: Q01DX009 (ip), vehicle: saline with Tween-80
[11] = dose: 100.0 mg/kg/injection, schedule: Q01DX009 (ip), vehicle: saline with Tween-80
[12] = dose: 200.0 mg/kg/injection, schedule: Q01DX009 (ip), vehicle: saline with Tween-80

Measured: T/C

CC(=O)CSc1ccc(C(C)(C)C)cc1
inactive: dose: 100.0 mg/kg/injection, schedule: Q01DX001 (ip), vehicle: carboxymethylcellulose (CMC) 102 % of control | dose: 200.0 mg/kg/injection, schedule: Q01DX001 (ip), vehicle: carboxymethylcellulose (CMC) 96 % of control | dose: 400.0 mg/kg/injection, schedule: Q01DX001 (ip), vehicle: carboxymethylcellulose (CMC) 105 % of control

Cc1ccc(S(=O)(=O)F)cc1C(=O)NCc1ccc(OCc2nc(N)nc(N)c2-c2ccc(Cl)c(Cl)c2)cc1
inactive: dose: 32.5 mg/kg/injection, schedule: Q01DX001 (ip), vehicle: Klucel (hydroxypropylcellulose) (HPC) 96 % of control | dose: 65.0 mg/kg/injection, schedule: Q01DX001 (ip), vehicle: Klucel (hydroxypropylcellulose) (HPC) 96 % of control | dose: 130.0 mg/kg/injection, schedule: Q01DX001 (ip), vehicle: Klucel (hydroxypropylcellulose) (HPC) 96 % of control

Nc1ncnc2c1ccn2C1CCC(CO)C1 (stereo not drawn)
inactive: dose: 50.0 mg/kg/injection, schedule: Q01DX001 (ip), vehicle: other 108 % of control | dose: 100.0 mg/kg/injection, schedule: Q01DX001 (ip), vehicle: other 103 % of control | dose: 200.0 mg/kg/injection, schedule: Q01DX001 (ip), vehicle: other 101 % of control

Clc1cc(I)cc(Cl)c1Cl
inactive: dose: 100.0 mg/kg/injection, schedule: Q04DX003 (ip), vehicle: acetone 108 % of control | dose: 200.0 mg/kg/injection, schedule: Q04DX003 (ip), vehicle: acetone 103 % of control | dose: 400.0 mg/kg/injection, schedule: Q04DX003 (ip), vehicle: acetone 91 % of control

C/C=C/C=N/NC(=O)c1ccccc1O
inactive: [1] 102 % of control | [2] 105 % of control | [3] 94 % of control

CC1=C(Br)C(=O)C(C)=C(Br)C1=O
inactive: dose: 25.0 mg/kg/injection, schedule: Q04DX003 (ip), vehicle: other 95 % of control | dose: 50.0 mg/kg/injection, schedule: Q04DX003 (ip), vehicle: other 87 % of control | dose: 100.0 mg/kg/injection, schedule: Q04DX003 (ip), vehicle: other 100 % of control

CN1CCN=C(c2ccccc2)c2cc(Cl)ccc21
inactive: dose: 6.25 mg/kg/injection, schedule: Q01DX009 (ip), vehicle: saline 110 % of control | dose: 12.5 mg/kg/injection, schedule: Q01DX009 (ip), vehicle: saline 101 % of control | dose: 25.0 mg/kg/injection, schedule: Q01DX009 (ip), vehicle: saline 94 % of control | dose: 25.0 mg/kg/injection, schedule: Q04DX003 (ip), vehicle: saline 93 % of control | dose: 50.0 mg/kg/injection, schedule: Q01DX009 (ip), vehicle: saline 100 % of control | dose: 50.0 mg/kg/injection, schedule: Q04DX003 (ip), vehicle: saline 93 % of control | dose: 100.0 mg/kg/injection, schedule: Q01DX009 (ip), vehicle: saline 95 % of control | [4] 98 % of control

O=C(O)/C=C/S(=O)(=O)c1ccc(Cl)cc1
inactive: dose: 12.5 mg/kg/injection, schedule: Q04DX002 (ip), vehicle: Klucel (hydroxypropylcellulose) (HPC) 101 % of control | dose: 25.0 mg/kg/injection, schedule: Q01DX009 (ip), vehicle: Klucel (hydroxypropylcellulose) (HPC) 97 % of control | [5] 97 % of control | dose: 50.0 mg/kg/injection, schedule: Q01DX009 (ip), vehicle: Klucel (hydroxypropylcellulose) (HPC) 97 % of control | [6] 108 % of control | [7] 95 % of control

Cc1nc(N)[nH]c(=O)c1NC(=O)c1ccc(N)cc1
inactive: dose: 12.5 mg/kg/injection, schedule: Q04DX002 (ip), vehicle: saline with Tween-80 101 % of control | [8] 96 % of control | [9] 99 % of control

CC(CO)(CI)[n+]1ccccc1 (stereo not drawn)
inactive: dose: 25.0 mg/kg/injection, schedule: Q01DX009 (ip), vehicle: saline with Tween-80 100 % of control | [10] 94 % of control | [11] 103 % of control | dose: 100.0 mg/kg/injection, schedule: Q04DX003 (ip), vehicle: saline with Tween-80 106 % of control

O=[N+]([O-])c1ccc(N2N=NC3CC/C(=C\c4cccc([N+](=O)[O-])c4)C32N2CCOCC2)cc1 (stereo not drawn)
inactive: [5] 104 % of control | [6] 101 % of control | [7] 88 % of control

COC(=O)/C(Br)=C\c1ccc(-c2ccccc2)cc1
inactive: [10] 93 % of control | [11] 93 % of control | [12] 93 % of control

CC(=O)Nc1ccc(/C=N/NC(=O)CNC(=O)NCc2ccccc2)cc1
inactive: [10] 95 % of control | [11] 89 % of control | [12] 89 % of control

S=P(c1ccccc1)(N1CC1)N1CC1
inactive: [8] 110 % of control | dose: 50.0 mg/kg/injection, schedule: Q01DX Z (ip), vehicle: saline 124 % of control | [9] 103 % of control | dose: 100.0 mg/kg/injection, schedule: Q01DX Z (ip), vehicle: saline 115 % of control | dose: 100.0 mg/kg/injection, schedule: Q04DX002 (ip), vehicle: saline with Tween-80 115 % of control and 116 % of control | dose: 200.0 mg/kg/injection, schedule: Q04DX002 (ip), vehicle: saline with Tween-80 92 % of control

CCCCC[N+](C)(C)CCOC(=O)C1C2CC3OC(=O)C1C3C2 (stereo not drawn)
inactive: [4] 95 % of control

CN(C)CCOC(=O)c1ccc(N)cc1
inactive: [4] 96 % of control | dose: 200.0 mg/kg/injection, schedule: Q04DX003 (ip), vehicle: saline 98 % of control

OC[P+](CO)(CO)CO
inactive: dose: 25.0 mg/kg/injection, schedule: Q04DX002 (ip), vehicle: saline 113 % of control | dose: 50.0 mg/kg/injection, schedule: Q04DX002 (ip), vehicle: saline 103 % of control | dose: 100.0 mg/kg/injection, schedule: Q04DX002 (ip), vehicle: saline 100 % of control and 109 % of control

CCOC(=O)/C(=C/c1cccc2ccccc12)P(=O)(OCC)OCC
inactive: dose: 50.0 mg/kg/injection, schedule: Q01DX001 (ip), vehicle: saline 97 % of control | dose: 100.0 mg/kg/injection, schedule: Q01DX001 (ip), vehicle: saline 97 % of control | dose: 200.0 mg/kg/injection, schedule: Q01DX001 (ip), vehicle: saline 103 % of control | dose: 400.0 mg/kg/injection, schedule: Q01DX001 (ip), vehicle: saline 101 % of control

CS(=O)(=O)OC1COC(c2ccccc2)OC1C1OC(c2ccccc2)OCC1OS(C)(=O)=O (stereo not drawn)
inactive: [6] 98 % of control | [7] 98 % of control | dose: 200.0 mg/kg/injection, schedule: Q04DX002 (ip), vehicle: Klucel (hydroxypropylcellulose) (HPC) 109 % of control

CCCC(C)C(=O)c1ccccc1 (stereo not drawn)
inactive: [1] 96 % of control | dose: 100.0 mg/kg/injection, schedule: Q04DX003 (ip), vehicle: Klucel (hydroxypropylcellulose) (HPC) 103 % of control | [2] 93 % of control | dose: 200.0 mg/kg/injection, schedule: Q04DX003 (ip), vehicle: Klucel (hydroxypropylcellulose) (HPC) 110 % of control | [3] 96 % of control | dose: 400.0 mg/kg/injection, schedule: Q04DX003 (ip), vehicle: Klucel (hydroxypropylcellulose) (HPC) 108 % of control
